Measured values reported in patent publication US11344542B2, “Treatment of aging-associated disease with modulators of leukotriene A4 hydrolase” (Alkahest, Inc., priority 2018, dated 2022).
“Also recorded” adds a separate entry of the source.

Key:
[1] = tested on: nineteen-month-old wild type (C57BL/6) mice; experiment: Y-maze in aged mice treated with inhibitors; assay type: in vivo, mouse; settings: PO daily for 4 weeks, SC 5 mg/kg, CP 10 mg/kg
Experimental: A large Y-maze test assessed short-term memory of the familiarity of a specific context. Mice were brought to the experimental room for at least 30 min of acclimation to the experimental room conditions (dim lighting) prior to testing. For the initial training trial, the mouse was placed at the end of one arm of a large Y-maze designated “start arm” (arm length: 15 inches). The third arm of the maze was blocked off, allowing the mouse to explore two of the three arms freely (“start arm” and “familiar arm”) for 5 min. Each arm contained spatial cues. Three hours later, the mouse was placed back into the maze in the “start arm,” and allowed to explore all three arms with the third arm unblocked (“novel arm”). Movements in and out of each arm were tracked using automated tracking software (CleverSys or San Diego Instruments). Testing was performed under dim lighting, and the apparatus was cleaned with 70% ethanol between trials. The time spent and number of entireties into the “novel arm” and “familiar arm” were analyzed, as well as total distance travelled and velocity as measures of general locomotor activity.
Recombinant human LTA4H (Bio-techne, 4008-SN) was buffer-exchanged into sterile PBS and dosed at 4.6 ug/150 uL by tail vein i.v. injection. SC-57461A (Cayman Chemical, 423169-68) stock solution was prepared at 10 mg/mL in DMSO. […]

LTB4 = experiment: Plasma LTB4 by ELISA in aged mice treated with inhibitors; assay type: in vivo, mouse; settings: terminal plasma, PO daily for 4 weeks, vs vehicle
Experimental: On the final day of dosing, mice were deeply anesthetized with Avertin (250 mg/kg IP). The mice are subjected to cardiac puncture and blood samples were collected using syringes pre-filled with EDTA or heparin. Blood was either subjected to calcimycin stimulation assay or separated into plasma by centrifugation. Plasma from each mouse was aliquoted and stored at −80° C.
The concentration of mouse LTB4, the product of LTA4H enzyme hydrolysis activity, was measured using commercially-available LTB4 parameter assay kits (R&D Systems and Enzo). Blood samples were collected by cardiac puncture into pre-filled syringes with EDTA and injected into a microcentrifuge tube. The plasma was separated by centrifugation at 1000 g for 15 minutes at 4 C. Alternatively, blood was subjected to a calcimycin stimulation assay to increase the production of LTB4 prior to plasma collection. All plasma was stored at −80 C until measurement of LTB4 levels. LTB4 levels were measured from the plasma from 4-15 individual young (3 month, 3M) or aged (22.5 month, 22.5M) wild-type mice (WT; C57BL/6).
Nineteen-month-old (19 mo) wild type (WT; C57BL/6) mice were homogenized into five (5) groups by body weight, total distance travelled in the open field test, and average velocity in the open field test. […]

[2] = tested on: nineteen-month-old wild type (C57BL/6) mice; experiment: Radial arm water maze in aged mice treated with inhibitors; assay type: in vivo, mouse
Experimental: The water maze (see, e.g. Alamed J, et al., Two-day radial-arm water maze learning and memory tasks; robust resolution of amyloid-related memory deficits in transgenic mice., Nat. Protoc., 1(4):1671-79 (2006)), was filled with water at least 24 hours prior to the test to equilibrate to 25° C. The water was dyed with white latex paint to make the animals visible for tracking and to allow for the use of a hidden platform. Eight distinct visual cues were placed at the end of each of eight arms of the RAWM inserts. On day 1 animals were subjected to 5 trials each with a visible platform and a 30-minute inter-trial interval. Animals had 60 seconds to reach the platform. […] The goal arm remained constant and a different start arm was randomly assigned for each of the 5 trials so that mouse started in every arm once except for the two arms directly across from the platform. The goal arm was switched after every two mice and balanced between all treatment groups. After each trial the mice were placed in an empty cage with blue pads and allowed to dry off under a heat lamp before being placed back into their home cage. Testing day was 48 hours after training, when animals were subjected to the same test of 5 trials each and a 30-minute inter-trial interval, but with a hidden platform Animals were scored for the number of errors (entry into a non-goal arm) and for latency to reach the platform. All trials were recorded using TopScan software (CleverSys, Inc., Reston, Va.).
Recombinant human LTA4H (Bio-techne, 4008-SN) was buffer-exchanged into sterile PBS and dosed at 4.6 ug/150 uL by tail vein i.v. injection. SC-57461A (Cayman Chemical, 423169-68) stock solution was prepared at 10 mg/mL in DMSO. Stock solution was diluted into sterile PBS immediately prior to p.o. dosing to a final concentration of 10% DMSO and 1 mg/mL SC-57461A. Mice were p.o. dosed at 5 mg/kg. CP-105,696 (Sigma, PZ0363), Pinostilbene hydrate (Sigma, SML0098), and Montelukast (Cayman Chemical, 10008318) stock solutions were prepared at 30 mg/mL in EtOH/Solutol. […]

hippocampal mRNA levels = experiment: qPCR of hippocampal mRNA levels in aged mice treated with inhibitors; assay type: in vivo, mouse; settings: PO daily for 4 weeks, vs vehicle
Experimental: (§1) Brains were collected following saline perfusion and separated by mid-sagittal slice with one-half drop fixed in freshly prepared 4% PFA. PFA was changed to 30% sucrose 24-48 hours later. A second change to 30% sucrose occurred 24 hours later. The second half was dissected into hippocampus and cortex and then snap frozen on dry ice.
(§2) Brain tissue was sectioned or lysed and analyzed for markers of neurogenesis and aging by standard histological and biochemical methods, including qRT-PCR, Western blot, ELISA, and immunohistochemistry.
(§3) Nineteen-month-old (19 mo) wild type (WT; C57BL/6) mice were homogenized into five (5) groups by body weight, total distance travelled in the open field test, and average velocity in the open field test. Group 1 was administered 10% EtOH control PO daily for 4 weeks, Group 2 was administered 5 mg/kg of SC-57461A LTA4H dual inhibitor PO daily for 4 weeks; Group 3 was administered 10 mg/kg of CP-105,696 LTB4 receptor (BLTR) antagonist PO daily for 4 weeks, Group 4 was administered 10 mg/kg of Montelukast cysteinyl receptor (CysLTR) antagonist daily for 4 weeks, and Group 5 was administered 10 mg/kg of pinostilbene hydrate daily for 4 weeks. During Week 4 of treatment all groups were tested using open field, radial arm water maze, and Y-maze. During Week 5 animals were sacrificed, and tissues collected for histological and biochemical analysis.

[3] = tested on: aquaporin 4 (AQP4) in the hippocampus; experiment: Aquaporin 4 (AQP4) immunofluorescence in the hippocampus of aged mice; assay type: in vivo, mouse; settings: 10 mg/kg PO daily for 4 weeks
Experimental: as §1, §2, §3

LTA4H = molecular target: T1, LTA4H (Homo sapiens, UniProt P09960); settings: in vitro; Low et al., Sci Rep 2017; cited from earlier work
T1 sequence (P09960 1-611): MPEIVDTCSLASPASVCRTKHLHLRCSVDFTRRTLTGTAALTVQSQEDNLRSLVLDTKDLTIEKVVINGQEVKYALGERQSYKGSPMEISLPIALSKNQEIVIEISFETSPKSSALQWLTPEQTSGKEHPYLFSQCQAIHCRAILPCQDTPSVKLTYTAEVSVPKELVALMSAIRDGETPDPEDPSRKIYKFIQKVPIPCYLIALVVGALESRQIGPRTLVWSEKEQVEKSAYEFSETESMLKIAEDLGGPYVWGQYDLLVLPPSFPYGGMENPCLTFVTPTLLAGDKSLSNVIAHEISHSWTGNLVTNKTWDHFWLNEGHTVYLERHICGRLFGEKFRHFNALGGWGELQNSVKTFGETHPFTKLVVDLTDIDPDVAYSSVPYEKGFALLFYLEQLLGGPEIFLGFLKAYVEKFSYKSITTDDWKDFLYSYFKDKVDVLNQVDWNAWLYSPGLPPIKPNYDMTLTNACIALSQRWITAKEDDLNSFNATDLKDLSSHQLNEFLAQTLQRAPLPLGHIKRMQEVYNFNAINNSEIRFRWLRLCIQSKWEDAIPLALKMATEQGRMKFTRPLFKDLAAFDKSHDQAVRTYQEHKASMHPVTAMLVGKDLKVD

[4] = hidden platform testing phase, compared to vehicle mice

| Compound | preference for the novel versus familiar arm in Y-maze (percentage of entries) [1] | plasma concentration of LTB4 measured by ELISA (LTB4) | hippocampus-dependent spatial memory in radial arm water maze ([2]; aged mice, PO daily for 4 weeks, SC 5 mg/kg, Montelukast 10 mg/kg) | latency to find the platform in radial arm water maze [2, 4] | number of errors in radial arm water maze [2, 4] | IL-1β hippocampal mRNA expression (qPCR) (hippocampal mRNA levels) | IL-6 hippocampal mRNA expression (qPCR) (hippocampal mRNA levels) | TNFα hippocampal mRNA expression (qPCR) (hippocampal mRNA levels) | aqp4 hippocampal mRNA expression (qPCR) (hippocampal mRNA levels) | h2d1 hippocampal mRNA expression (qPCR) (hippocampal mRNA levels) | timp1 hippocampal mRNA expression (qPCR) (hippocampal mRNA levels) | fluorescence intensity of AQP4 in the hippocampus immediately surrounding blood vessels (vascular) [3] | integrated optical density of aquaporin 4 (AQP4) in the hippocampus ([3]; vs vehicle, hydrate, 10 mg/kg) | inhibition of hydrolase versus peptidase activity of LTA4H (LTA4H) |
| --- | --- | --- | --- | --- | --- | --- | --- | --- | --- | --- | --- | --- | --- | --- |
| O=C(O)C1(c2ccc3c(c2)OC[C@H](Cc2ccc(-c4ccccc4)cc2)[C@H]3O)CCCC1 [CP-105,696] | statistically significant preference for the novel arm |  |  |  |  |  |  |  |  |  |  |  |  |  |
| CN(CCCOc1ccc(Cc2ccccc2)cc1)CCC(=O)O.Cl [SC-57461A] | trend towards preference for the novel arm | reduces | improvement | significantly shorter latency | fewer errors | significant decrease | significant decrease | significant decrease | significant decrease | significant decrease | trend towards a decrease |  |  |  |
| COc1cc(O)cc(/C=C/c2ccc(O)cc2)c1 [pinostilbene hydrate] |  | did not detect a reduction |  |  |  |  |  | significant decrease |  |  |  | trend towards a decrease | trend towards a decrease; also recorded: significant reduction | only inhibit the hydrolase activity and not the peptidase activity |
